# Experimental data taken from US20210052882A1, “ENHANCED TREATMENT VOLUME AND SELECTIVE ABLATION USING ELECTROPORATION WITH ADJUVANT CALCIUM” (Virginia Tech Intellectual Properties, Inc., priority 2019, published 2021).
# Several values for one entry are separate records, joined by “and”; a condition that tells them apart may be missing. Equal entries are not always repeated.
# How the values were obtained:
# [1] = 450 V, 1 Hz, 100 μs; 80 pulses for IRE, 8 pulses for ECT; cited from earlier work
# [2] = system: U251 malignant glioma cells; assay: H-FIRE ablation (lesion) area in collagen scaffolds, live/dead stain 24 hr after treatment; format: cell-based; details: for increase of ablation area compared to NaCl control / increase in ablation area compared to NaCl control: H-FIRE 800 V, 80 bursts
# Procedure: U251 malignant glioma cells (Sigma Aldrich, 09063001) were maintained at 5% CO2 and 37° C. in Eagle's Minimum Essential Medium (Sigma Aldrich) supplemented with 1% penicillin/streptomycin (Life Technologies), 10% fetal bovine serum (Atlanta Biologicals), 1% non-essential amino acids (Sigma Aldrich) and 1 mM sodium pyruvate (Sigma Aldrich). Cells were routinely passaged at 80-90% confluence. […] PDMS wells were treated with 1% PEI (Acros Organics) for 10 min, 0.1% glutaraldehyde (Fisher Scientific) for 20 min, and then washed twice with deionized water prior to collagen seeding to ensure collagen adhesion during treatment. Commercial rat tail collagen type I (BD Biosciences) was neutralized using a solution of 10× Dulbecco's Modified Eagle Medium (10% total volume, Sigma Aldrich), 1 N NaOH (2% collagen volume, Sigma Aldrich), and 1× Dulbecco's Modified Eagle Medium (Sigma Aldrich) to a final concentration of 5 mg/mL. […] The collagen/cell solution was dispensed into PDMS wells and PDMS tops were used to mold the collagen flat while they polymerized in a cell culture incubator for 20 min. PDMS tops were then removed and cell culture media was added. Collagen scaffolds were maintained in the incubator for 24 hr prior to treatment. […] All solutions consisted of the same base ingredients: 250 mM sucrose, 1 mM MgCl2, and 10 mM HEPES buffer in deionized water with a pH in the range of 7.2-7.4. […] Cell culture media contains things such as serum and antibiotics that may affect results. Finally, fresh solutions were added immediately prior to pulsing. All solutions were adjusted to have a pH between 7.2-7.4. The osmolarity and conductivity of the buffers used are shown in Table 1: In this example, two hollow, stainless-steel needle electrodes (Howard electronics) were inserted into the scaffolds using a custom designed electrode housing. […] H-FIRE pulses were delivered using a high-voltage pulse generator (EPULSUS®-FBM1-5, EnergyPulse Systems, Lda). Voltage waveforms were captured using a high voltage probe and oscilloscope (DPO 2012, Tektronix). […] The pulses delivered were bipolar pulses having a positive pulse duration, inter-pulse delay, and negative pulse duration (see, e.g., FIG. 1B). Inter-pulse delay was kept constant (1 μs) while pulse width was varied (1, 2, 5, 10 μs). […] For reversible threshold experiments, scaffolds were imaged immediately after treatment. To visualize ablations, a live/dead stain was performed to visualize live and dead regions of cells in the scaffold. […] Scaffolds were then washed 2× with PBS prior to imaging using an inverted microscope (DMI 6000B, Leica Microsystems) with a 5× objective. Lesion areas were quantified for each treatment using a MATLAB algorithm. Since 24 h post treatment is sufficient to allow any reversibly electroporated cells to recover (as pore resealing happens on the order of minutes), staining the cells immediately after treatment and 24 h later allows for quantification of both the reversible zone of electroporation and irreversible zones of ablation. […] Scaffolds were then washed twice with PBS prior to imaging using an inverted microscope (DMI 6000B, Leica Microsystems) with a 5× objective, filter cubes, and an EM-CCD camera (Hamamatsu C9100). The appropriate filters were used to image Calcein AM (Ex:460-500, DC: 505, EM: 570-640) and propidium iodide (EX:545/26, DC:565, EM:605/70). […] Scaffolds were then imaged immediately after treatment. […] Reversible electroporation experiments were repeated at least six times. Discrepancies in the number of replicates between conditions were due to bubbles or other defects that may have changed the electric field distribution or prohibited a reliable measurement of ablation area. These scaffolds were excluded from analysis. Two-way ANOVA was used to test for differences in cell death area due to the different applied solutions and pulse waveforms. Tukey post-hoc comparisons were used to examine differences among treatment groups. […]
# cells [3] = details: nsPEFs; cited from earlier work
# cells [4] = details: cited from earlier work
# cells [5] = assay: Toxicity of calcium chloride to cells at the concentrations used; format: cell-based
# [6] = system: U251 malignant glioma cells; assay: Electric field threshold for cell death, ablation area mapped to finite element model
# Procedure: For analysis, images were separated into two channels (green—Calcein AM, red—PI) and ablation areas for the green channel were analyzed for irreversible thresholds and red channels for reversible electroporation thresholds using a custom algorithm written in MATLAB. In cases where the algorithm was unable to accurately measure ablations, coordinate points from the algorithm outlining the ablation area were used as a guide to manually trace and measure the area in ImageJ. Ablation area measurements were mapped to a finite element model of the experimental setup to determine the corresponding electric field threshold.
# Treatments were simulated using the finite element method (COMSOL Multiphysics, Burlington, Mass.) and the electric field and temperature distributions were determined. The mesh was refined until there was <1% change in the electric field and temperature values along a cutline between the electrodes. The mesh consisted of 102,615 total elements. […] From the finite element model of the collagen scaffold, a relationship between lesion area and electric field magnitude is determined by performing numerical integration on the surface of the scaffold for a range of electric field magnitudes (100-3000 V/cm). A curve was constructed and fit to the data using least squares fitting in MATLAB. […] This equation was used to accurately back out the electric field thresholds for each treatment condition without needing to manually determine them using COMSOL.
# From the finite element model, it is possible to determine the electric field threshold required for cell death.
# Using the finite element model of H-FIRE treatment in the scaffold, the corresponding electric field thresholds for each ablation area were characterized.
# [7] = system: U251 malignant glioma cells; assay: Reversible electroporation zone in collagen scaffolds imaged immediately after H-FIRE treatment; format: cell-based; details: for difference between reversible and irreversible electroporation areas: FIG. 10
# Procedure: After pulsing, CaCl2, NaCl, KCl, and CaCl2/NaCl solutions were removed and cell culture media was added to each scaffold. For irreversible threshold experiments, the scaffolds were returned to the incubator for 24 hr prior to live/dead staining. For reversible threshold experiments, scaffolds were imaged immediately after treatment.
# To visualize ablations, a live/dead stain was performed to visualize live and dead regions of cells in the scaffold. Scaffolds were incubated with 2 μM Calcein AM and 23 μM propidium iodide in phosphate buffered saline (PBS) for 30 minutes at room temperature. Scaffolds were then washed 2× with PBS prior to imaging using an inverted microscope (DMI 6000B, Leica Microsystems) with a 5× objective. Lesion areas were quantified for each treatment using a MATLAB algorithm. Since 24 h post treatment is sufficient to allow any reversibly electroporated cells to recover (as pore resealing happens on the order of minutes), staining the cells immediately after treatment and 24 h later allows for quantification of both the reversible zone of electroporation and irreversible zones of ablation.
# To stain the scaffolds, media was removed and replaced with phosphate buffered saline (PBS) containing 2 μM Calcein AM (Invitrogen) and 23 μM PI (Invitrogen) and incubated at room temperature for 30 min. Scaffolds were then washed twice with PBS prior to imaging using an inverted microscope (DMI 6000B, Leica Microsystems) with a 5× objective, filter cubes, and an EM-CCD camera (Hamamatsu C9100). The appropriate filters were used to image Calcein AM (Ex:460-500, DC: 505, EM: 570-640) and propidium iodide (EX:545/26, DC:565, EM:605/70). To determine the reversible zone of electroporation, treatment followed the same electroporation protocol, but Calcein AM and PI were added to the CaCl2 and NaCl solutions at all steps prior to pulsing. Scaffolds were then imaged immediately after treatment.
# Irreversible electroporation experiments were repeated 6-12 times for each condition. Reversible electroporation experiments were repeated at least six times. Discrepancies in the number of replicates between conditions were due to bubbles or other defects that may have changed the electric field distribution or prohibited a reliable measurement of ablation area. These scaffolds were excluded from analysis. Two-way ANOVA was used to test for differences in cell death area due to the different applied solutions and pulse waveforms. Tukey post-hoc comparisons were used to examine differences among treatment groups. Statistical analyses were performed with a confidence level of α=0.05 (MP Pro 14). Results are shown as means±standard deviation.
# To investigate how CaCl2 and NaCl treatments affect permeabilization of the cells, the areas for reversible electroporation and their corresponding reversible electric field thresholds were characterized. Reversible electroporation thresholds for H-FIRE treatment have not been extensively characterized, making this work one of the first to quantify reversible thresholds for a range of unexplored pulse durations.
# [8] = Properties of solutions (conductivity, osmolarity); format: physicochemical; details: base 250 mM sucrose, 1 mM MgCl2, 10 mM HEPES, pH 7.2-7.4
# Procedure: All solutions consisted of the same base ingredients: 250 mM sucrose, 1 mM MgCl2, and 10 mM HEPES buffer in deionized water with a pH in the range of 7.2-7.4. […] Cell culture media contains things such as serum and antibiotics that may affect results. Finally, fresh solutions were added immediately prior to pulsing. All solutions were adjusted to have a pH between 7.2-7.4.
smiles,measurement,setting,value
"[Ca+2].[Cl-].[Cl-] [CaCl2, calcium chloride]",lesion area for IRE or ECT treatment when CaCl2 is added,[1],greatly increased
same,increase of ablation area compared to NaCl control,"[2]; 1 mM, 1-1-1 waveform",~2.3 ×
same,increase of ablation area compared to NaCl control,"[2]; 1 mM, 2-1-2 waveform",4.4 ×
same,increase of ablation area compared to NaCl control,"[2]; 1 mM, 5-1-5 waveform",6.1 ×
same,increase of ablation area compared to NaCl control,"[2]; 1 mM, 10-1-10 waveform",3.42 ×
same,increase in ablation area compared to NaCl control,"[2]; 5 mM, 1-1-1 waveform",3.4 ×
same,increase in ablation area compared to NaCl control,"[2]; 5 mM, 2-1-2 waveform",4.37 ×
same,increase in ablation area compared to NaCl control,"[2]; 5 mM, 5-1-5 waveform",5.24 ×
same,increase in ablation area compared to NaCl control,"[2]; 5 mM, 10-1-10 waveform",2.66 ×
same,lesion size compared with an IRE treatment without calcium,"[2]; 5 mM, same applied energy, 2, 5 and 10 μs pulse widths",comparable in size or larger
same,"ablation (lesion) sizes, calcium groups versus NaCl groups","[2]; H-FIRE, all pulse patterns",statistically significantly larger
same,5 mM CaCl2 areas versus 1 mM CaCl2 areas,"[2]; after 24 h, shorter pulse durations",larger
same,cell swelling and mode of cell death,cells [3],experienced necrosis
same,"cell death, ECT pulses with calcium versus electroporation alone",cells [4],more cell death
same,"cellular ATP, ECT pulses with calcium versus electroporation alone",cells [4],greater decrease
same,toxicity to cells,cells [5],non-toxic
same,reduction of electric field threshold compared to NaCl control,"[6]; 1 mM, 1-1-1 waveform",1.24 ×
same,reduction of electric field threshold compared to NaCl control,"[6]; 1 mM, 2-1-2 waveform",1.48 ×
same,reduction of electric field threshold compared to NaCl control,"[6]; 1 mM, 2-2-2 waveform",1.5 ×
same,reduction of electric field threshold compared to NaCl control,"[6]; 1 mM, 5-1-5 waveform",2.05 ×
same,reduction of electric field threshold compared to NaCl control,"[6]; 1 mM, 5-5-5 waveform",2.1 ×
same,reduction of electric field threshold compared to NaCl control,"[6]; 1 mM, 10-1-10 waveform",2.2 × and 2.19 ×
same,"reduction of electric field threshold, 5 mM NaCl to 5 mM CaCl2",[6]; 1-1-1 waveform,1.46 ×
same,"reduction of electric field threshold, 5 mM NaCl to 5 mM CaCl2",[6]; 2-1-2 waveform,1.77 × and 1.91 ×
same,"reduction of electric field threshold, 5 mM NaCl to 5 mM CaCl2",[6]; 5-1-5 waveform,2.49 × and 2.43 ×
same,"reduction of electric field threshold, 5 mM NaCl to 5 mM CaCl2",[6]; 10-1-10 waveform,1.92 × and 1.83 ×
same,electric field threshold,"[6]; H-FIRE 10-1-10 waveform with calcium, concentration not given",784±107 V/cm
same,electric field threshold,"[6]; H-FIRE 10-1-10 waveform, 1 mM",771±129 V/cm
same,electric field threshold,[6]; IRE treatment,467±67 V/cm
same,reversible zone larger than the 1 mM NaCl zone,"[7]; 1 mM CaCl2, 2-1-2 waveform",1.56 ×
same,reversible zone larger than the 1 mM NaCl zone,"[7]; 1 mM CaCl2, 5-1-5 waveform",1.7 ×
same,reversible zone larger than the 1 mM NaCl zone,"[7]; 1 mM CaCl2, 10-1-10 waveform",1.42 ×
same,reversible zone larger than the 1 mM NaCl zone,"[7]; 5 mM CaCl2, 2-1-2 waveform",1.66 ×
same,reversible zone larger than the 1 mM NaCl zone,"[7]; 5 mM CaCl2, 5-1-5 waveform",1.73 ×
same,reversible zone larger than the 1 mM NaCl zone,"[7]; 5 mM CaCl2, 10-1-10 waveform",1.46 ×
same,reversible zones larger than irreversible zones,"[7]; 2-1-2 waveform, 1 mM",2.62 ×
same,reversible zones larger than irreversible zones,"[7]; 2-1-2 waveform, 5 mM",1.47 ×
same,reversible zones larger than irreversible zones,"[7]; 5-1-5 waveform, 1 mM",1.67 ×
same,reversible zones larger than irreversible zones,"[7]; 5-1-5 waveform, 5 mM",1.3 ×
same,reversible zones larger than irreversible zones,"[7]; 10-1-10 waveform, 1 mM",1.32 ×
same,reversible zones larger than irreversible zones,"[7]; 10-1-10 waveform, 5 mM",1.59 ×
same,difference between reversible and irreversible electroporation areas,[7],decreased
same,"difference between 1 mM and 5 mM treatments, reversible case",[7]; imaged immediately after treatment,no statistically significant difference
same,Conductivity,[8]; 1 mM solution,0.075 ± 0.004 S/m
same,Osmolarity,[8]; 1 mM solution,289 mOsm/L
same,Conductivity,[8]; 5 mM solution,0.131 S/m
same,Osmolarity,[8]; 5 mM solution,300 mOsm/L
"[Cl-].[K+] [KCl, potassium chloride]",ablation size relative to the NaCl control,"[2]; 1 mM, H-FIRE",did not result in statistically significant ablation size
same,Conductivity,[8]; 1 mM solution,0.064 S/m
same,Osmolarity,[8]; 1 mM solution,289 mOsm/L
"[Cl-].[Na+] [NaCl, sodium chloride, reference compound]",visible lesion after H-FIRE,[2]; shorter pulse widths,no visible lesion
same,electric field threshold,"[6]; H-FIRE 10-1-10 waveform, 1 mM",1641±159 V/cm
same,electric field threshold,[6]; IRE treatment,698±103 V/cm
same,"reversible areas, NaCl solutions versus CaCl2 counterparts","[7]; 1 mM and 5 mM, all waveforms",smaller reversible areas
same,reversible zones larger than irreversible zones,"[7]; 2-1-2 waveform, 1 mM",4.68 ×
same,reversible zones larger than irreversible zones,"[7]; 2-1-2 waveform, 5 mM",3.88 ×
same,reversible zones larger than irreversible zones,"[7]; 5-1-5 waveform, 1 mM",5.58 ×
same,reversible zones larger than irreversible zones,"[7]; 5-1-5 waveform, 5 mM",3.94 ×
same,reversible zones larger than irreversible zones,"[7]; 10-1-10 waveform, 1 mM",3.17 ×
same,reversible zones larger than irreversible zones,"[7]; 10-1-10 waveform, 5 mM",2.94 ×
same,difference between reversible and irreversible electroporation areas,[7],largest
same,Conductivity,[8]; 1 mM solution,0.056 ± 0.001 S/m
same,Osmolarity,[8]; 1 mM solution,287 mOsm/L
same,Conductivity,[8]; 5 mM solution,0.089 S/m
same,Osmolarity,[8]; 5 mM solution,291 mOsm/L
